Among the data in patent US20040127492A1 (Pharmacia Corporation, priority 2002, published 2004) are IC50 values, retold here.

Where two headings read alike, the source gives them in different places.

For test [1], the target named is MAPKAPK2 (MK-2) (Homo sapiens, UniProt P49137). Briefly: Determination of MK-2 IC50 (HSP-peptide phosphorylation, anion exchange resin capture assay). The test is classed as biochemical. In short, it runs like this:
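MAPKAPK2, preactivated by p38α with 0.25 mM ATP for 1 h at 30° C, used at 15 nM to phosphorylate HSP-peptide with 0.03 mM ATP plus [γ33P]ATP, pH 7.5, 2% DMSO, 30 min at 30° C. Labelled peptide counted after anion-exchange resin capture; IC50 from six ten-fold dilutions, triplicate.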

The target in test [2] is MK-3 (Homo sapiens, UniProt Q16644). Briefly: MK-3 inhibition IC50 (similar method to MK-2, with appropriate modifications). The class given is biochemical. As to conditions: read-out: MK-3 Avg. IC50.
Setting [3] is: Table 2, pyrazolylpyrazole MK-2 inhibitors, read-out: MK-2 Avg. IC50.
Where [4] appears, read: Table 2, pyrazolylpyrazole MK-2 inhibitors.
The mark [5] stands for this setting: Table 1, phenoxypyrazole MK-2 inhibitors, read-out: MK-2 Avg, IC50.
Where [6] appears, read: Table 1, phenoxypyrazole MK-2 inhibitors.

Chain of MK-3 (Q16644 whole entry, species assumed): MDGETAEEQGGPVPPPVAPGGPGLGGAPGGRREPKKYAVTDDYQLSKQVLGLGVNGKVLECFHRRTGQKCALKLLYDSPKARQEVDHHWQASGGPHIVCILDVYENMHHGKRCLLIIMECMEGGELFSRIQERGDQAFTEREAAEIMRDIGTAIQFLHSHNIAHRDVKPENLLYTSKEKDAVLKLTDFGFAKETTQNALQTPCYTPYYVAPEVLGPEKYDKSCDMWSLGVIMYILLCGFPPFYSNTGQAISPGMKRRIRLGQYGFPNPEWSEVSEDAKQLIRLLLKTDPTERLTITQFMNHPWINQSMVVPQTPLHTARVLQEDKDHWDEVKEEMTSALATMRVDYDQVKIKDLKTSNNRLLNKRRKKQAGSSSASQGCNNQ
Chain of MAPKAPK2 (MK-2) (P49137 whole entry, species assumed): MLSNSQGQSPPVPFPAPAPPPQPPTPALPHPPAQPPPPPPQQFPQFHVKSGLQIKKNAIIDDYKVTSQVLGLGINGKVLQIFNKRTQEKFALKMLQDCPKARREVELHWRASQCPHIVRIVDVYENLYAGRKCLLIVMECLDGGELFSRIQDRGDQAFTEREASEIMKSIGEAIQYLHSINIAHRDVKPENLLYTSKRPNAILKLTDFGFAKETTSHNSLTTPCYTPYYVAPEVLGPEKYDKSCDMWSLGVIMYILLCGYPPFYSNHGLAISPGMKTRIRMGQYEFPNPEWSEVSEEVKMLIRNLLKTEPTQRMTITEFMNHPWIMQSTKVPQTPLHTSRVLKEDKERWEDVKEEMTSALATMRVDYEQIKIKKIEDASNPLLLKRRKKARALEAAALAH

On to `CS(=O)(=O)c1ccc(CCCNCCCn2nc3c(c2C(=O)O)CCc2cnccc2-3)cc1` [Example 65], for which the IC50 (as a rule, the concentration at which inhibition is half-maximal) stood at 0.622 µM in test [1] (read-out: MK-2 Avg. IC50) and 26.1 µM in test [2].

Turning to `Cn1ncc2c1CCc1c-2n[nH]c1C(N)=O` [Example 49], the IC50 in test [1] (setting [3]) and in test [2] (setting [4]) was at least 200 µM in each case.

With `CC(C)(C)OC(=O)NCCCn1nc2c(c1C(=O)O)CCc1cc(O)ccc1-2` [Example 72], the IC50 in test [1] (setting [5]) was 181 µM; in test [2] (setting [6]) it was above 200 µM.

In the case of `CS(=O)(=O)c1cccc(-c2cc3c(cc2O)CCc2c-3nn(CCCN)c2C(=O)O)c1` [Example 16], the IC50 in test [1] (setting [5]) was 12.9 µM; in test [2] (setting [6]), above 200 µM.

Take `O=C(O)c1[nH]nc2c1CCc1cc(O)ccc1-2` [Example 24]: the values for the IC50 in test [1] (setting [5]) and in test [2] (setting [6]) were 19.6 µM and above 200 µM, respectively.

Turning to `CCOC(=O)c1[nH]nc2c1CCc1c-2cnn1C` [Example 50], the IC50 in test [1] (setting [3]) and in test [2] (setting [4]) was at least 200 µM throughout.

Consider `NCCCn1nc2c(c1C(=O)O)CCc1cc(O)c(-c3ccc(F)c(F)c3)cc1-2` [Example 17], for which the IC50 in test [1] (setting [5]) turned out to be 14.2 µM; in test [2] (setting [6]), 167 µM.

For the compound `NC(=O)c1[nH]nc2c1CCc1c-2ccc(O)c1Br` [Example 20], the IC50 is 17.6 µM in test [1] (setting [5]) and above 200 µM in test [2] (setting [6]).

Take `CCOC(=O)c1nn(-c2ccc(S(N)(=O)=O)cc2)c2c1CCc1cc(O)ccc1-2` [Example 176]: the IC50 in test [1] (setting [5]) and in test [2] (setting [6]) was above 200 µM each time.

As to `NCCCn1nc2c(c1C(=O)O)CCc1cc(O)c(Br)cc1-2` [Example 8], the IC50 was 3.75 µM in test [1] (setting [5]) and above 200 µM in test [2] (setting [6]).

For `COc1ccc2c(c1)CCc1c-2n[nH]c1C(=O)NN` [Example 180], the IC50 in test [1] (setting [5]) and in test [2] (setting [6]) was above 200 µM each time.

As for `CCOC(=O)c1c2c(nn1CCCN)-c1cn[nH]c1CC2` [Example 33], the IC50 amounted to 116 µM in test [1] (setting [3]) and 186 µM in test [2] (setting [4]).

On to `COc1ccc(CCNCCCn2nc3c(c2C(=O)O)CCc2cnccc2-3)cc1OC` [Example 100], for which the IC50 in test [1] (read-out: MK-2 Avg. IC50) was found to be 2.33 µM; in test [2] it was 48.1 µM.

As for `O=C(O)c1c2c(nn1CCCNCCc1ccc(Br)cc1)-c1cn[nH]c1CC2` [Example 3], the IC50 was determined as 2.23 µM in test [1] (setting [3]) and 20.8 µM in test [2] (setting [4]).

As for `C=CCn1nc2c(c1C(=O)O)CCc1cc(O)ccc1-2` [Example 31], the IC50 is 35.6 µM in test [1] (setting [5]) and above 200 µM in test [2] (setting [6]).

For the compound `CCN(CC)CCNC(=O)c1nn(-c2ccc(Cl)cc2)c2c1CCc1cc(OC)ccc1-2` [Example 171], the IC50 in test [1] (setting [5]) and in test [2] (setting [6]) was above 200 µM throughout.

Turning to `CCOC(=O)c1nn(-c2ccc(S(N)(=O)=O)cc2)c2c1CCc1cc(OC)ccc1-2` [Example 178], the IC50 in test [1] (setting [5]) and in test [2] (setting [6]) was above 200 µM throughout.

In the case of `CCOc1ccc(CCNCCCn2nc3c(c2C(=O)O)CCc2cnccc2-3)cc1` [Example 74], the IC50 worked out at 0.931 µM in test [1] (read-out: MK-2 Avg. IC50) and 34.8 µM in test [2].

For the compound `COc1cc2c(cc1OC)-c1n[nH]c(C(=O)NNc3ccc(S(N)(=O)=O)cc3)c1CC2` [Example 177], the IC50 in test [1] (setting [5]) and in test [2] (setting [6]) was above 200 µM throughout.

For the compound `NCCCn1nc2c(c1C(=O)O)CCc1cc(O)c(-c3cccc(C(F)(F)F)c3)cc1-2` [Example 11], the IC50 in test [1] (setting [5]) worked out at 7.53 µM; in test [2] (setting [6]), 71.7 µM.

`CNC(=O)c1nn(-c2ccc(S(N)(=O)=O)cc2)c2c1CCc1[nH]ncc1-2` [Example 52]: the IC50 in test [1] (setting [3]) and in test [2] (setting [4]) was at least 200 µM throughout.

On to `N#CC(N)CCn1nc2c(c1C(=O)O)CCc1cnccc1-2` (centres unmarked) [Example 207], for which the figures for the IC50 in test [1] (read-out: MK-2 Avg. IC50) and in test [2] were 36.9 µM and 186 µM, respectively.

In the case of `O=C(O)c1c2c(nn1CCCNCCc1ccc(-c3cccnc3)cc1)-c1ccncc1CC2` [Example 55], the half-maximal inhibitory concentration (IC50) amounted to 0.522 µM in test [1] (read-out: MK-2 Avg. IC50) and 11.2 µM in test [2].

In the case of `NCCCn1nc2c(c1C(=O)O)CCc1cnc(-c3cnc4ccccc4c3)cc1-2` [Example 1], the figures for the IC50 in test [1] (read-out: MK-2 Avg. IC50) and in test [2] were 0.00946 µM and 0.0354 µM, respectively.

Take `NC(=O)c1nn(-c2ccccc2)c2c1CCc1c-2cnn1Cc1ccccc1` [Example 53]: the IC50 in test [1] (setting [3]) and in test [2] (setting [4]) was at least 200 µM each time.
